In patent US10202404B2, “Polycyclic pyridone derivative having integrase inhibitory activity” (Shionogi & Co., Ltd., priority 2014, dated 2019):

Test system: HIV
Test: Anti-HIV activity (MT-4 cells, MTT)
Assay type: cell-based
Conditions: 50% HIV inhibition concentration, MT-4 cells infected with HIV, incubated 4 days, MTT readout
Method: Previously, a series of two-fold dilution on test samples were carried out in a 96-well plate (50 μL/well). Two plates were made for measuring anti-HIV activity and measuring cytotoxicity. For each agent, measurement in duplicate was carried out. An MT-4 cell suspension of 2.5×10^5/mL was dispensed at 100 μL/well onto the 96-well plate containing the test samples. An HIV virus solution was dispensed at 50 μL/well onto the 96-well plate containing the test samples and the cell. To the plate for measuring cytotoxicity, a culture solution was dispensed at 50 μL/well. It was mixed by a plate mixer, and then incubated in a CO2 incubator for 4 days. […] Thirty microliters of a MTT (3-(4,5-dimethylthiazol-2-yl)-2,5-diphenyltetrazolium bromide) solution was dispensed to each well.
A reaction was allowed to occur in a CO2 incubator for an hour. From each well, 150 μL of the supernatant was removed such that cells are not sucked. One-hundred and fifty microliters of a cell lysis solution was added thereto, and then it was mixed well by a plate mixer until the whole cells are lysed. The mixed 96-well plates were measured by a microplate reader at two wavelengths, 560 nm/690 nm. Based on the following calculation formula, 50% HIV inhibition concentration (EC50) was calculated. EC50=10Z Z=(50%−Low %)/(High %−Low %)×{log(High conc.)−log(Low conc.)}+log(Low conc.) Based on the following calculation formula, 50% cytotoxic concentration (CC50) was calculated. CC50=10Z Z=(50%−Low %)/(High %−Low %)×{log(High conc.)−log(Low conc.)}+log(Low conc.) Based on the following calculation formula, selectivity index (ST) was calculated. SI=CC50/EC50 (Result)

[1] = Human immunodeficiency virus 1, MT4, 96 h

| EC50 [nM] | Structure (SMILES) | EC50 [1] [nM] |
| --- | --- | --- |
| – | O=C1c2c(O)c(=O)c(-c3nnc(Cc4cccc(Cl)c4F)s3)cn2C[C@H]2CCCN12 [Compound B-4] | 5.5 |
| – | O=C1c2c(O)c(=O)c(-c3nnc(Cc4cccc(Cl)c4F)s3)cn2C[C@H]2CCCCN12 [Compound B-5] | 6.7 |
| – | O=C1c2c(O)c(=O)c(-c3nnc(Cc4cccc(Cl)c4F)s3)cn2C[C@@H]2CCCCN12 [Compound B-6] | 7.5 |
| – | O=C1c2c(O)c(=O)c(-c3nnc(Cc4c(F)cc(F)cc4F)s3)cn2C[C@H]2CCCCN12 [Compound B-7] | 2.9 |
| – | O=C1c2c(O)c(=O)c(-c3nnc(Cc4c(F)cc(F)cc4F)s3)cn2C[C@@H]2CCCCN12 [Compound B-8] | 3.8 |
| – | O=C1c2c(O)c(=O)c(-c3nnc(Cc4ccc(F)cc4F)s3)cn2C[C@@H]2[C@@H]3C[C@@H]3CN12 [Compound B-9] | 2 |
| – | O=C1c2c(O)c(=O)c(-c3nnc(Cc4ccc(F)cc4F)s3)cn2C[C@@H]2COCCN12 [Compound B-10] | 10 |
| – | O=C1c2c(O)c(=O)c(-c3nnc(Cc4ccc(F)cc4F)s3)cn2C[C@H]2COCCN12 [Compound B-11] | 5.9 |
| – | O=C1c2c(O)c(=O)c(-c3ncc(Cc4ccc(F)cc4F)s3)cn2C[C@@H]2CCCN12 [Compound B-13] | 7.7 |
| – | O=C1c2c(O)c(=O)c(-c3ncc(Cc4cccc(Cl)c4F)s3)cn2C[C@@H]2CCCN12 [Compound B-14] | 10 |
| – | O=C1c2c(O)c(=O)c(-c3ncc(Cc4ccc(F)cc4F)s3)cn2C[C@H]2CCCN12 [Compound B-15] | 4 |
| – | O=C1c2c(O)c(=O)c(-c3ncc(Cc4ccc(F)cc4F)s3)cn2C[C@H]2CCCCN12 [Compound B-16] | 7.7 |
| – | O=C1c2c(O)c(=O)c(-c3ncc(Cc4cccc(Cl)c4F)s3)cn2C[C@H]2CCCN12 [Compound B-17] | 5.3 |
| – | O=C1c2c(O)c(=O)c(-c3ncc(Cc4cccc(Cl)c4F)s3)cn2C[C@H]2CCCCN12 [Compound B-18] | 14 |
| – | O=C1c2c(O)c(=O)c(-c3ncc(Cc4cccc(Cl)c4F)s3)cn2C[C@@H]2CCCCN12 [Compound B-19] | 18 |
| – | O=C1c2c(O)c(=O)c(-c3nnc(Cc4ccc(F)cc4F)s3)cn2C[C@@H]2C[C@@H](F)CCN12 [Compound B-21] | 4 |
| – | O=C1c2c(O)c(=O)c(-c3nnc(Cc4ccc(F)cc4F)s3)cn2C[C@@H]2[C@H]3CC[C@H](C3)N12 [Compound B-22] | 3.5 |
| – | CCN1CN(CCOC)C(=O)c2c(O)c(=O)c(-c3nnc(Cc4ccc(F)cc4F)s3)cn21 [Compound C-2] | 1.4 |
| – | COCCN1CN(C)n2cc(-c3nnc(Cc4ccc(F)cc4F)s3)c(=O)c(O)c2C1=O [Compound C-3] | 1.1 |
| – | CCN1CN(CCOC)C(=O)c2c(O)c(=O)c(-c3nnc(Cc4cccc(Cl)c4F)s3)cn21 [Compound C-4] | 2.1 |
| – | CCN1CN([C@H](C)C(F)(F)F)C(=O)c2c(O)c(=O)c(-c3nnc(Cc4ccc(F)cc4F)s3)cn21 [Compound C-5] | 3.4 |
| – | CCN1CN([C@H](C)C(F)(F)F)C(=O)c2c(O)c(=O)c(-c3nnc(Cc4cccc(Cl)c4F)s3)cn21 [Compound C-6] | 5.7 |

| EC50 [nM] | Structure (SMILES) | EC50 [1] [nM] |
| --- | --- | --- |
| – | CCN1CN(CCCOC)C(=O)c2c(O)c(=O)c(-c3nnc(Cc4ccc(F)cc4F)s3)cn21 [Compound C-7] | 2 |
| – | CCN1CN(CCCOC)C(=O)c2c(O)c(=O)c(-c3nnc(Cc4cccc(Cl)c4F)s3)cn21 [Compound C-8] | 2.4 |
| 5.8 | CCN1CN(CCOC)C(=O)c2c(O)c(=O)c(-c3ncc(Cc4ccc(F)cc4F)s3)cn21 [Compound C-10] | – |
| – | COCCN1CN(C)n2cc(-c3ncc(Cc4ccc(F)cc4F)s3)c(=O)c(O)c2C1=O [Compound C-13] | 2.7 |
| 2.2 | O=C1c2c(O)c(=O)c(-c3nnc(Cc4cccc(Cl)c4F)s3)cn2CN2CCCCN12 [Compound C-14] | – |
| – | O=C1c2c(O)c(=O)c(-c3nnc(Cc4ccc(F)cc4F)s3)cn2CN2CCCCN12 [Compound C-15] | 1.7 |
| – | O=C1c2c(O)c(=O)c(-c3nnc(Cc4ccc(F)cc4F)s3)cn2CN2CCOCCN12 [Compound C-16] | 8.5 |
| – | CN1Cn2cc(-c3nnc(Cc4ccc(F)cc4F)s3)c(=O)c(O)c2C(=O)N1C [Compound C-18] | 2.3 |
| – | O=C1c2c(O)c(=O)c(-c3nnc(Cc4ccc(F)cc4F)s3)cn2CN2CCCN12 [Compound C-19] | 4.2 |
| – | COCCN1C(=O)c2c(O)c(=O)c(-c3nnc(Cc4ccc(F)cc4F)s3)cn2CN1C [Compound C-20] | 1.7 |
| – | CCN1Cn2cc(-c3nnc(Cc4ccc(F)cc4F)s3)c(=O)c(O)c2C(=O)N1CC [Compound C-21] | 1.5 |
| – | COCCN1Cn2cc(-c3nnc(Cc4ccc(F)cc4F)s3)c(=O)c(O)c2C(=O)N1C(C)C [Compound C-22] | 1.3 |
| – | CCN1C(=O)c2c(O)c(=O)c(-c3nnc(Cc4ccc(F)cc4F)s3)cn2CN1C [Compound C-23] | 1.2 |
| – | O=C1c2c(O)c(=O)c(-c3nnc(Cc4ccc(F)cc4F)s3)cn2CN2CC3(CC3)CN12 [Compound C-24] | 2.4 |
| – | CCN1NCn2cc(-c3nnc(Cc4ccc(F)cc4F)s3)c(=O)c(O)c2C1=O [Compound C-25] | 2.2 |
| – | COCCN1Cn2cc(-c3nnc(Cc4ccc(F)cc4F)s3)c(=O)c(O)c2C(=O)N1C [Compound C-26] | 1.5 |
| – | COCCN1Cn2cc(-c3nnc(Cc4ccc(F)cc4F)s3)c(=O)c(O)c2C(=O)N1CCOC [Compound C-27] | 2 |
| – | CC1CCN2Cn3cc(-c4nnc(Cc5ccc(F)cc5F)s4)c(=O)c(O)c3C(=O)N12 (centres unmarked) [Compound C-28] | 4.8 |
| – | CC(=O)Oc1c2n(cc(-c3nnc(Cc4ccc(F)cc4F)s3)c1=O)C[C@@H]1OCC[C@@H](C)N1C2=O [Compound D-1] | 3.8 |
| – | COC(=O)OCOc1c2n(cc(-c3nnc(Cc4ccc(F)cc4F)s3)c1=O)C[C@@H]1OCC[C@@H](C)N1C2=O [Compound D-2] | 8 |
| – | C[C@@H]1CCO[C@H]2Cn3cc(-c4nnc(Cc5ccc(F)cc5F)s4)c(=O)c(OCOC(=O)C(C)(C)C)c3C(=O)N12 [Compound D-3] | 4.8 |
| – | COCCOC(=O)Oc1c2n(cc(-c3nnc(Cc4ccc(F)cc4F)s3)c1=O)C[C@@H]1OCC[C@@H](C)N1C2=O [Compound D-4] | 4.1 |
